Inconclusive results and toxic doses are left out. Rule for the calls: active = survival T/C of 150% or more; inactive = T/C below 125% in these data.
Tested on: CD2F1 mice, L1210 leukemia ip, survival T/C
Assay: NCI In Vivo Anticancer Drug Screen. Data for tumor model L1210 Leukemia (intraperitoneal) in CD2F1 (CDF1) mice
Settings: endpoint: mean survival time, higher = longer survival
Method in brief: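 Mice carrying a transplanted tumor received test compound or vehicle alone. The value is the measurement in the treated group divided by that in the vehicle-treated control group.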

[1] = dose: 25.0 mg/kg/injection, schedule: Q01DX009 (ip), vehicle: saline
[2] = dose: 50.0 mg/kg/injection, schedule: Q01DX009 (ip), vehicle: saline
[3] = dose: 100.0 mg/kg/injection, schedule: Q01DX009 (ip), vehicle: saline
[4] = dose: 50.0 mg/kg/injection, schedule: Q04DX002 (ip), vehicle: saline with Tween-80
[5] = dose: 100.0 mg/kg/injection, schedule: Q04DX002 (ip), vehicle: saline with Tween-80
[6] = dose: 200.0 mg/kg/injection, schedule: Q04DX002 (ip), vehicle: saline with Tween-80
[7] = dose: 400.0 mg/kg/injection, schedule: Q04DX002 (ip), vehicle: saline with Tween-80
[8] = dose: 50.0 mg/kg/injection, schedule: Q04DX003 (ip), vehicle: saline with Tween-80

Measured: T/C

Cc1nc(N)nc(N)c1CCCOc1ccc(NC(=O)c2cccc(S(=O)(=O)F)c2)cc1
inactive: dose: 12.5 mg/kg/injection, schedule: Q01DX009 (ip), vehicle: saline 101 % of control | [1] 107 % of control | [2] 107 % of control | [3] 109 % of control | dose: 100.0 mg/kg/injection, schedule: Q#A X018 (ip), vehicle: saline 90 % of control | dose: 200.0 mg/kg/injection, schedule: Q01DX009 (ip), vehicle: saline 107 % of control

CC1CCC(c2cc(-c3ccccc3)n(-c3ccccc3)n2)CC1 (centres undefined)
inactive: dose: 100.0 mg/kg/injection, schedule: Q04DX003 (ip), vehicle: acetone 103 % of control | dose: 200.0 mg/kg/injection, schedule: Q04DX003 (ip), vehicle: acetone 101 % of control | dose: 400.0 mg/kg/injection, schedule: Q04DX003 (ip), vehicle: acetone 93 % of control

CC1(C(=O)O)C2C3C=CC(C3)C21 (centres undefined)
inactive: dose: 100.0 mg/kg/injection, schedule: Q01DX009 (ip), vehicle: saline with Tween-80 100 % of control | dose: 200.0 mg/kg/injection, schedule: Q01DX009 (ip), vehicle: saline with Tween-80 97 % of control | dose: 400.0 mg/kg/injection, schedule: Q01DX009 (ip), vehicle: saline with Tween-80 103 % of control

c1ccc(CN(c2ccccc2)C2CCCCC2)cc1
inactive: dose: 100.0 mg/kg/injection, schedule: Q04DX003 (ip), vehicle: Klucel (hydroxypropylcellulose) (HPC) 91 % of control | dose: 200.0 mg/kg/injection, schedule: Q04DX003 (ip), vehicle: Klucel (hydroxypropylcellulose) (HPC) 91 % of control

COc1ccc2nc3cc(Cl)ccc3c(NCCC[N+](C)(C)CCCCCCCCCCCCCCCC[N+](C)(C)CCCNc3c4ccc(Cl)cc4nc4ccc(OC)cc34)c2c1
inactive: dose: 1.56 mg/kg/injection, schedule: Q01DX009 (ip), vehicle: other 96 % of control | dose: 3.13 mg/kg/injection, schedule: Q01DX009 (ip), vehicle: other 94 % of control | dose: 6.25 mg/kg/injection, schedule: Q01DX009 (ip), vehicle: other 105 % of control

NC(=O)C(O)(c1ccc(Br)cc1)C(Cl)Cl (centres undefined)
inactive: dose: 28.5 mg/kg/injection, schedule: Q04DX002 (ip), vehicle: saline with Tween-80 97 % of control | [4] 107 % of control | dose: 57.0 mg/kg/injection, schedule: Q04DX002 (ip), vehicle: saline with Tween-80 95 % of control | [5] 102 % of control | dose: 114.0 mg/kg/injection, schedule: Q04DX002 (ip), vehicle: saline with Tween-80 98 % of control

CCn1c(=O)c2c(nc(Cl)n2C2OC(COC(C)=O)C(OC(C)=O)C(OC(C)=O)C2NC(C)=O)n(CC)c1=O (centres undefined)
inactive: dose: 12.5 mg/kg/injection, schedule: Q01DX005 (ip), vehicle: distilled water + Tween-80 98 % of control | dose: 25.0 mg/kg/injection, schedule: Q01DX005 (ip), vehicle: distilled water + Tween-80 97 % of control | dose: 50.0 mg/kg/injection, schedule: Q01DX005 (ip), vehicle: distilled water + Tween-80 97 % of control | dose: 100.0 mg/kg/injection, schedule: Q01DX005 (ip), vehicle: distilled water + Tween-80 95 % of control | dose: 200.0 mg/kg/injection, schedule: Q01DX005 (ip), vehicle: distilled water + Tween-80 97 % of control

COc1cc(C2=N/C(=C\c3ccc(Cl)c(Cl)c3)C(=O)O2)cc(OC)c1OC
inactive: [5] 114 % of control | [6] 95 % of control | [7] 100 % of control

O=[N+]([O-])C(Br)C(Br)c1ccccc1 (centres undefined)
inactive: dose: 6.25 mg/kg/injection, schedule: Q01DX001 (ip), vehicle: Klucel (hydroxypropylcellulose) (HPC) 96 % of control | dose: 12.5 mg/kg/injection, schedule: Q01DX001 (ip), vehicle: Klucel (hydroxypropylcellulose) (HPC) 97 % of control | dose: 25.0 mg/kg/injection, schedule: Q01DX001 (ip), vehicle: Klucel (hydroxypropylcellulose) (HPC) 91 % of control | dose: 50.0 mg/kg/injection, schedule: Q01DX001 (ip), vehicle: Klucel (hydroxypropylcellulose) (HPC) 102 % of control

O=C1C=C(N2CCOCC2)C(=O)c2nccnc21
inactive: dose: 25.0 mg/kg/injection, schedule: Q04DX003 (ip), vehicle: saline with Tween-80 95 % of control | [8] 95 % of control

c1ccc(Sc2cccc3c(-c4ccccc4)c4cccc5c4c(c23)C[S+]5c2ccccc2)cc1 (centres undefined)
inactive: dose: 3.13 mg/kg/injection, schedule: Q04DX003 (ip), vehicle: saline with Tween-80 96 % of control | dose: 6.25 mg/kg/injection, schedule: Q04DX003 (ip), vehicle: saline with Tween-80 96 % of control | dose: 12.5 mg/kg/injection, schedule: Q04DX003 (ip), vehicle: saline with Tween-80 93 % of control

O=NN1CCCCCC1=O
inactive: dose: 75.0 mg/kg/injection, schedule: Q01DX001 (ip), vehicle: saline 108 % of control | dose: 150.0 mg/kg/injection, schedule: Q01DX001 (ip), vehicle: saline 110 % of control | dose: 300.0 mg/kg/injection, schedule: Q01DX001 (ip), vehicle: saline 120 % of control

CC(C(=O)O)C1CCC2(C)CCC(=O)C(C)(Cl)C2(O)C1=O (centres undefined)
inactive: [5] 96 % of control | [6] 100 % of control | [7] 100 % of control

C1CCC2(CC1)NCCO2
inactive: dose: 100.0 mg/kg/injection, schedule: Q01DX009 (ip), vehicle: saline sonified 96 % of control | dose: 200.0 mg/kg/injection, schedule: Q01DX009 (ip), vehicle: saline sonified 93 % of control

C=CCSc1cccc(C)c1
inactive: dose: 100.0 mg/kg/injection, schedule: Q01DX001 (ip), vehicle: saline 96 % of control | dose: 200.0 mg/kg/injection, schedule: Q01DX001 (ip), vehicle: saline 97 % of control

O=C1CSC(c2ccccc2)N1 (centres undefined)
inactive: [8] 102 % of control | dose: 100.0 mg/kg/injection, schedule: Q04DX003 (ip), vehicle: saline with Tween-80 100 % of control | dose: 200.0 mg/kg/injection, schedule: Q04DX003 (ip), vehicle: saline with Tween-80 100 % of control

O=C1C2CCN(CC2)C1CN1CCC2(CC1)C(=O)NCN2c1ccccc1 (centres undefined)
inactive: [4] 93 % of control | [5] 112 % of control

COC(=O)c1c(C(=O)OC)c(-c2ccc(Cl)c(Cl)c2)n2c1CCC2
inactive: dose: 50.0 mg/kg/injection, schedule: Q01DX009 (ip), vehicle: Klucel (hydroxypropylcellulose) (HPC) 91 % of control | dose: 100.0 mg/kg/injection, schedule: Q01DX009 (ip), vehicle: Klucel (hydroxypropylcellulose) (HPC) 88 % of control | dose: 200.0 mg/kg/injection, schedule: Q01DX009 (ip), vehicle: Klucel (hydroxypropylcellulose) (HPC) 98 % of control

ClC(Cl)=[C](Cl)[Hg][C](Cl)=C(Cl)Cl
inactive: dose: 6.25 mg/kg/injection, schedule: Q01DX009 (ip), vehicle: saline with Tween-80 93 % of control

IC1CCC[N-]C1.IC1CCC[N-]C1.[Cl][Pt+2][Cl] (centres undefined)
inactive: dose: 50.0 mg/kg/injection, schedule: Q01DX001 (ip), vehicle: saline with Tween-80 95 % of control | dose: 100.0 mg/kg/injection, schedule: Q01DX001 (ip), vehicle: saline with Tween-80 93 % of control | dose: 200.0 mg/kg/injection, schedule: Q01DX001 (ip), vehicle: saline with Tween-80 95 % of control

CCOC(=O)C(OCC)P(=O)(OCC)OCC (centres undefined)
inactive: dose: 25.0 mg/kg/injection, schedule: Q01DX005 (ip), vehicle: water 101 % of control | dose: 50.0 mg/kg/injection, schedule: Q01DX005 (ip), vehicle: water 101 % of control | dose: 100.0 mg/kg/injection, schedule: Q01DX005 (ip), vehicle: water 101 % of control | dose: 200.0 mg/kg/injection, schedule: Q01DX005 (ip), vehicle: water 101 % of control | dose: 400.0 mg/kg/injection, schedule: Q01DX005 (ip), vehicle: water 97 % of control

COC(=O)N1C=Cc2ccccc2C1C#N (centres undefined)
inactive: [1] 89 % of control | [2] 98 % of control | [3] 88 % of control

— PubChem BioAssay AID256 (DTP/NCI, 2004)
